These compounds were tested on phospho-SLP-76 (Ser376) in Jurkat cells (assay: Phospho-SLP-76 (Ser376) Homogeneous Time Resolved Fluorescence (HTRF) assay in Jurkat cells). Conditions: Homo sapiens, 30 min pre-treatment, anti-CD3 stimulation 15 min, HTRF, read-out: SLP76 Assay_IC50.
Assay type: cell-based
Protocol: Jurkat cells were seeded at 90,000 cells/well in 90 uL of RPMI1640 growth medium containing 10% FBS and incubated at 37° C. with 5% CO2 overnight. The following day, compounds were serially diluted from a 10 mM top dose for an 11-point 3 fold dilution curve in DMSO. Compounds were intermediately diluted 1:100 into growth media prior to diluting 1:10 on cells for final concentration 10 μM to 0.1 nM in 0.1% DMSO. After 30 minutes pre-treatment with compounds, the cells were stimulated using 200 μg/mL of F(ab)2 complexed anti-CD3 (clone UCTH1) for 15 min at 37° C. with 5% CO2. Stimulation was stopped with ice cold PBS and cells were harvested by centrifugation before lysis in Cisbio lysis buffer (Cisbio, Bedford, Mass.). Lysates were transferred to white, low-volume plates containing anti-phospho-SLP-76-Cryptate plus anti-phospho-SLP-76-d2 HTRF antibodies and incubated overnight at room temperature protected from light according to the manufacturer's protocol (Cisbio, Bedford, Mass.). HTRF was measured on a Perkin Elmer Envision and IC50 values were calculated by concentration-response curve fitting utilizing four-parameter nonlinear regression analyses.

`CC[C@@H](CC(F)(F)F)n1cnnc1-c1cccc(N2Cc3c(cc(N(C)C)nc3CNC)C2=O)n1` (single isomer, unassigned) [Example 18, 6-(dimethylamino)-4-[(methylamino)methyl]-2-(6-{4-[(3ξ)-1,1,1-trifluoropentan-3-yl]-4H-1,2,4-triazol-3-yl}pyridin-2-yl)-2,3-dihydro-1H-pyrrolo[3,4-c]pyridin-1-one] and `CNCc1nc(N2CCCC2)cc2c1CN(c1cccc(-c3nncn3[C@@H](C)CC(F)(F)F)n1)C2=O` [Example 15, 4-[(methylamino)methyl]-6-(pyrrolidin-1-yl)-2-(6-{4-[(2S)-4,4,4-trifluorobutan-2-yl]-4H-1,2,4-triazol-3-yl}pyridin-2-yl)-2,3-dihydro-1H-pyrrolo[3,4-c]pyridin-1-one] are within 1.5-fold of each other in IC50: 101 nM for the first, 134 nM for the second.

Going from `CNCc1nc(NC)cc2c1CN(c1cccc(-c3nncn3C(C)C)n1)C2=O` [Example 24] to `CCCn1c(C)nnc1-c1cccc(N2Cc3c(cc(N4CCC[C@H]4C)nc3CNC)C2=O)n1` [Example 62, 4-[(methylamino)methyl]-2-[6-(5-methyl-4-propyl-4H-1,2,4-triazol-3-yl)pyridin-2-yl]-6-[(2R)-2-methylpyrrolidin-1-yl]-2,3-dihydro-1H-pyrrolo[3,4-c]pyridin-1-one], the IC50 falls from 488 nM to 42 nM (12-fold).

Same assay, conditions: Homo sapiens, Phospho-SLP-76 (Ser376) HTRF, anti-CD3 stimulation, read-out: SLP76 Assay_IC50

`CCn1c(C)nnc1-c1cccc(N2Cc3c(cc(N4CCC[C@H]4C)nc3CNC)C2=O)n1` [Example 121, 2-[6-(4-ethyl-5-methyl-4H-1,2,4-triazol-3-yl)pyridin-2-yl]-4-[(methylamino)methyl]-6-[(2R)-2-methylpyrrolidin-1-yl]-2,3-dihydro-1H-pyrrolo[3,4-c]pyridin-1-one] and `CCCn1c(C)nnc1-c1cccc(N2Cc3c(cc(N4CCC[C@@H]4C)nc3CNC)C2=O)n1` [Example 134, 4-[(methylamino)methyl]-2-[6-(5-methyl-4-propyl-4H-1,2,4-triazol-3-yl)pyridin-2-yl]-6-[(2S)-2-methylpyrrolidin-1-yl]-2,3-dihydro-1H-pyrrolo[3,4-c]pyridin-1-one] are within 1.5-fold of each other in IC50: 62 nM for the first, 53 nM for the second.

Compared with `CCCn1c(C)nnc1-c1cccc(N2Cc3c(cc(N4CCC[C@H]4C)nc3CN)C2=O)n1` [Example 133, 4-(aminomethyl)-2-[6-(5-methyl-4-propyl-4H-1,2,4-triazol-3-yl)pyridin-2-yl]-6-[(2R)-2-methylpyrrolidin-1-yl]-2,3-dihydro-1H-pyrrolo[3,4-c]pyridin-1-one], `CCCn1c(C)nnc1-c1cccc(N2Cc3c(cc(N4CCC[C@@H]4C)nc3CN)C2=O)n1` [Example 159] is 2.1-fold lower in IC50: 232 nM for the first, 112 nM for the second.

`Cc1nnc(-c2cccc(N3Cc4c(cc(N5CCCC5(C)C)nc4CN)C3=O)n2)n1C(C)C` [Example 164] was tested, and the IC50 was 65 nM.

Each compound was assayed against human full-length recombinant HPK1 (Homo sapiens (Human), UniProt Q92918) (assay: HPK1 biochemical enzyme assay, microfluidic mobility shift assay (MSA)). Conditions: HPK1 mobility shift assay; read-out: HPK1 Enzyme Assay_Ki.
Protocol: HPK1 enzyme inhibition was measured using a microfluidic mobility shift assay (MSA). […] The reactions were conducted for 60 min at 37° C., stopped by the addition of 50 μL of 0.015 M EDTA, pH 8, and the extent of reactions (˜15-20% conversion with no inhibitor) was determined after electrophoretic separation of the fluorescently labeled peptide substrate and phosphorylated product on an LabChip EZ Reader II (PerkinElmer, Inc., Waltham, Mass.). […]

Chain of human full-length recombinant HPK1 (Q92918 whole entry): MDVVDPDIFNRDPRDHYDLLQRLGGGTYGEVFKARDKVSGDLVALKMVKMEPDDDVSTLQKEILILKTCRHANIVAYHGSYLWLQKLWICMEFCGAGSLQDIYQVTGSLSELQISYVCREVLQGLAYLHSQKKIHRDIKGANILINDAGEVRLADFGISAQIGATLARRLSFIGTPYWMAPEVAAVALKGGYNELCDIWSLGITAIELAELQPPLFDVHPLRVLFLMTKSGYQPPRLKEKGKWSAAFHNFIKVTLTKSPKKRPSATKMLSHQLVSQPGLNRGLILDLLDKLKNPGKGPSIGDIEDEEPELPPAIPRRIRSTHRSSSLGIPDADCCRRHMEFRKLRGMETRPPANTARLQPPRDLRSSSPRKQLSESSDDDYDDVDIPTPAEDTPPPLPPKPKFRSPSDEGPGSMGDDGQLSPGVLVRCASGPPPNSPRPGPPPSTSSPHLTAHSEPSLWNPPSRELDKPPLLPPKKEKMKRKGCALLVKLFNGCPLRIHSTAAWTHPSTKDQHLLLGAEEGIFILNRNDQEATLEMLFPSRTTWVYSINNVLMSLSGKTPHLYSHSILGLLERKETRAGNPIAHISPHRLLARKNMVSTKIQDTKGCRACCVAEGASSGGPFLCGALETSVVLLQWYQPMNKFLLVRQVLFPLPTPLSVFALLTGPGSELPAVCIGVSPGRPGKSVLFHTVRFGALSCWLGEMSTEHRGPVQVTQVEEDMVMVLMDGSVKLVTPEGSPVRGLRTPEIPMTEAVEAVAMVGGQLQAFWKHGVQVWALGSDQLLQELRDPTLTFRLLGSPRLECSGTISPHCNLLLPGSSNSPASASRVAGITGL

Compared with `CCC(CC(F)(F)F)n1cnnc1-c1cccc(N2Cc3c(cc(C4(C)CC4)nc3CNC)C2=O)n1` (single isomer, unassigned) [Example 180], `CC[C@H](CO)n1cnnc1-c1cccc(N2Cc3c(cc(C4(C)CC4)nc3CNC)C2=O)n1` (single isomer, unassigned) [Example 183] is 72-fold lower in Ki: 25.1 nM for the first, 0.35 nM for the second.

Going from `CCC(CC(F)(F)F)n1cnnc1-c1cccc(N2Cc3c(cc(C4(C)CC4)nc3CNC)C2=O)n1` (single isomer, unassigned) [Example 181] to `CC[C@@H](CO)n1cnnc1-c1cccc(N2Cc3c(cc(C4(C)CC4)nc3CNC)C2=O)n1` (single isomer, unassigned) [Example 184], the Ki rises from 0.13 nM to 1.15 nM (8.8-fold).

Compared with `CCNc1cc2c(c(CNC)n1)CN(c1cccc(-c3nncn3C(C)C)n1)C2=O` [Example 77, 6-(ethylamino)-4-[(methylamino)methyl]-2-{6-[4-(propan-2-yl)-4H-1,2,4-triazol-3-yl]pyridin-2-yl}-2,3-dihydro-1H-pyrrolo[3,4-c]pyridin-1-one], `CNCc1nc(N(C)C)cc2c1CN(c1cccc(-c3nncn3[C@@H](C)C(C)C)n1)C2=O` [Example 178] is 4-fold lower in Ki: 0.68 nM for the first, 0.17 nM for the second. The second binds more tightly here.

First: CCCn1cnnc1-c1cccc(N2Cc3c(cc(N(CC)C(C)C)nc3CNC)C2=O)n1 [Example 99, 6-[ethyl(propan-2-yl)amino]-4-[(methylamino)methyl]-2-[6-(4-propyl-4H-1,2,4-triazol-3-yl)pyridin-2-yl]-2,3-dihydro-1H-pyrrolo[3,4-c]pyridin-1-one]
Second: CNCc1nc(N(C)C)cc2c1CN(c1cccc(-c3nncn3[C@H](C)C(C)C)n1)C2=O [Example 182]
The Ki of the first is 2.2-fold higher: 0.83 nM for the first, 0.37 nM for the second. The second binds more tightly here.

Going from `CNCc1nc(C2(C)CC2)cc2c1CN(c1cccc(-c3nncn3C3CCCC3)n1)C2=O` [Example 179] to `CNCc1nc(C2(C)CC2)cc2c1CN(c1cccc(-c3nnc(C)n3C3CCC3)n1)C2=O` [Example 187], the Ki rises from 0.47 nM to 26 nM (55-fold).

Going from `CCCn1c(CC)nnc1-c1cccc(N2Cc3c(cc(N4CCC[C@H]4C)nc3CN)C2=O)n1` [Example 186] to `Cc1nnc(-c2cccc(N3Cc4c(cc(C5(C)CC5)nc4CN)C3=O)n2)n1C1CCC1` [Example 188], the Ki rises from 1.91 nM to 41 nM (21-fold).

Same assay, conditions: mobility shift assay; 75 μM ATP; Morrison equation, tight-binding competitive inhibition; read-out: HPK1 Enzyme Assay_Ki

Compared with `CC[C@@H](CC(F)(F)F)n1cnnc1-c1cccc(N2Cc3c(cc(N(C)C)nc3CNC)C2=O)n1` (single isomer, unassigned) [Example 18, 6-(dimethylamino)-4-[(methylamino)methyl]-2-(6-{4-[(3ξ)-1,1,1-trifluoropentan-3-yl]-4H-1,2,4-triazol-3-yl}pyridin-2-yl)-2,3-dihydro-1H-pyrrolo[3,4-c]pyridin-1-one], `CNCc1nc(C(F)(F)F)cc2c1CN(c1cccc(-c3nncn3C(C)C)n1)C2=O` [Example 52, 4-[(methylamino)methyl]-2-{6-[4-(propan-2-yl)-4H-1,2,4-triazol-3-yl]pyridin-2-yl}-6-(trifluoromethyl)-2,3-dihydro-1H-pyrrolo[3,4-c]pyridin-1-one] is higher in Ki: under 0.05 nM for the first, 89.9 nM for the second.

First: CNCc1nc(N2[C@H](C)C[C@H]2C)cc2c1CN(c1cccc(-c3nncn3C(C)C)n1)C2=O [Example 3, 6-[(2R,4R)-2,4-dimethylazetidin-1-yl]-4-[(methylamino)methyl]-2-{6-[4-(propan-2-yl)-4H-1,2,4-triazol-3-yl]pyridin-2-yl}-2,3-dihydro-1H-pyrrolo[3,4-c]pyridin-1-one]
Second: CNCc1nc(N2[C@H](C)CC[C@@H]2C)cc2c1CN(c1cccc(-c3nncn3C(C)C)n1)C2=O [Example 27, 6-[(2R,5S)-2,5-dimethylpyrrolidin-1-yl]-4-[(methylamino)methyl]-2-{6-[4-(propan-2-yl)-4H-1,2,4-triazol-3-yl]pyridin-2-yl}-2,3-dihydro-1H-pyrrolo[3,4-c]pyridin-1-one]
The Ki of the first is 4.1-fold higher: 0.77 nM for the first, 0.19 nM for the second.

Going from `CNCc1nccc2c1CN(c1cccc(-c3nncn3C(C)C)n1)C2=O` [Example 23, 4-[(methylamino)methyl]-2-{6-[4-(propan-2-yl)-4H-1,2,4-triazol-3-yl]pyridin-2-yl}-2,3-dihydro-1H-pyrrolo[3,4-c]pyridin-1-one] to `CNCc1nc(N2[C@H]3CC[C@@H]2CC3)cc2c1CN(c1cccc(-c3nncn3C(C)C)n1)C2=O` [Example 25, 6-[(1s,4s)-7-azabicyclo[2.2.1]hept-7-yl]-4-[(methylamino)methyl]-2-{6-[4-(propan-2-yl)-4H-1,2,4-triazol-3-yl]pyridin-2-yl}-2,3-dihydro-1H-pyrrolo[3,4-c]pyridin-1-one], the Ki falls from 140 nM to 1 nM (140-fold). The second binds more tightly here.

First: CC(C)n1cnnc1-c1cccc(N2Cc3c(cc(C4CC4)nc3CN)C2=O)n1 [Example 31, 4-(aminomethyl)-6-cyclopropyl-2-{6-[4-(propan-2-yl)-4H-1,2,4-triazol-3-yl]pyridin-2-yl}-2,3-dihydro-1H-pyrrolo[3,4-c]pyridin-1-one]
Second: CCCn1cnnc1-c1cccc(N2Cc3c(cc(N(C)C(C)C)nc3CNC)C2=O)n1 [Example 63, 4-[(methylamino)methyl]-6-[methyl(propan-2-yl)amino]-2-[6-(4-propyl-4H-1,2,4-triazol-3-yl)pyridin-2-yl]-2,3-dihydro-1H-pyrrolo[3,4-c]pyridin-1-one]
The Ki of the first is higher: 0.66 nM for the first, under 0.09 nM for the second. The second binds more tightly here.

`CCCn1cnnc1-c1cccc(N2Cc3c(cc(N4CCC[C@H]4C)nc3CNC)C2=O)n1` [Example 55, 4-[(methylamino)methyl]-6-[(2R)-2-methylpyrrolidin-1-yl]-2-[6-(4-propyl-4H-1,2,4-triazol-3-yl)pyridin-2-yl]-2,3-dihydro-1H-pyrrolo[3,4-c]pyridin-1-one] and `CCCn1c(C)nnc1-c1cccc(N2Cc3c(cc(N(C)C(C)C)nc3CNC)C2=O)n1` [Example 64, 4-[(methylamino)methyl]-6-[methyl(propan-2-yl)amino]-2-[6-(5-methyl-4-propyl-4H-1,2,4-triazol-3-yl)pyridin-2-yl]-2,3-dihydro-1H-pyrrolo[3,4-c]pyridin-1-one] cannot be ordered by Ki: under 0.06 nM for the first, under 0.17 nM for the second.

`CCc1nnc(-c2cccc(N3Cc4c(cc(N(C)C(C)C)nc4CNC)C3=O)n2)n1CC` [Example 67, 2-[6-(4,5-diethyl-4H-1,2,4-triazol-3-yl)pyridin-2-yl]-4-[(methylamino)methyl]-6-[methyl(propan-2-yl)amino]-2,3-dihydro-1H-pyrrolo[3,4-c]pyridin-1-one] gave a Ki of 1.29 nM.
